Reference: US10201532B2, “Compounds and their use” (ALLECRA THERAPEUTICS GMBH, priority 2010, dated 2019)
“And” between values parts separate entries of the source, which are not always exact repeats. Identical values can stand only once.

Legend:
[1] = tested on: K. pneumoniae UMM3 (KPC2); test: Synergistic broth micro-dilution MIC; assay type: cell-based, Klebsiella pneumoniae; details: BLI at 4 μg/mL
[2] = tested on: KPC-2 producing K. pneumoniae (ATCC BAA-1705); test: Synergistic broth micro-dilution MIC (checkerboard); assay type: cell-based, Klebsiella pneumoniae; details: ATCC BAA-1705
[3] = tested on: E. cloacae 01 MGH 049 (KPC2, AmpC); test: Synergistic broth micro-dilution MIC; assay type: cell-based; details: BLI at 4 μg/mL
[4] = tested on: K. pneumoniae ATCC BAA-1705 (KPC2); test: Disk zone of inhibition, antibiotic + Compound-1 on same disk (Methodology 2); assay type: cell-based, Klebsiella pneumoniae
Excerpt: In this experiment, Compound-1 is used as a diagnostic reagent for the detection of β-lactamases belonging to the families KPC & ESBL (e.g., SHV18) producing Enterobacteriaceae. A simple set of absorbent paper disks impregnated with antibiotic on agar medium is used for the detection.
• 0.5 McFarland of the test organism was inoculated at 1:10 dilution on Muller • Hinton Agar plates • Test organisms: Klebsiella pneumoniae (K.p) ATCC BAA-1705, Klebsiella pneumoniae ATCC 700603, Escherichia coli (E.c) Ecoli233 • Carbapenem (e.g., Imipenem [IPM] 10 μg) and cephalosporin (e.g., Ceftazidime [CAZ] 30 μg) paper disks (7 mm) were placed on the inoculated agar plates • Compound-1 (60 μg) disk was placed at a distance of 7 & 10 mm from the carbapenem and cephalosporin disks. • The presence of expressed carbapenemases or ESBLs was measured as the expansion of Imipenem or Ceftazidime's inhibition zones due to synergy in the presence of Compound-1.
The methodology remains the same as Methodology 1 except the following change • Compound-1 (60 μg) was added on the same disk in combination with a carbapenem (e.g., Imipenem 10 μg) or cephalosporin (e.g., Ceftazidime 30 μg) and placed on the inoculated agar plate. • The presence of the expressed carbapenemases or ESBLs was measured as an increase in Imipenem or Ceftazidime's zone diameter in combination with Compound-1 compared to antibiotic alone. Results

[5] = tested on: KPC-3 expressing E. coli (J53 R6206); test: Synergistic broth micro-dilution MIC (checkerboard); assay type: cell-based, Escherichia coli

## C[n+]1ccn(C[C@@]2(C)[C@H](C(=O)[O-])N3C(=O)C[C@H]3S2(=O)=O)n1 [Compound-1, 1-{[(2S,3S,5R)-2-Carboxy-3-methyl-4,4,7-trioxo-4-thia-1-azabicyclo[3.2.0]hept-3-yl]methyl}-3-methyl-1H-1,2,3-triazol-3-ium]
[1]
  MIC of Imipenem in combination with BLI: 1 µg/mL
[2]; BLI at 1 μg/mL
  MIC of Cefquinome in combination with BLI: >64 µg/mL
  MIC of Ceftiofur in combination with BLI: >64 µg/mL
[2]; BLI at 2 μg/mL
  MIC of Cefepime in combination with BLI: 64 µg/mL
  MIC of Cefotaxime in combination with BLI: 32 µg/mL
  MIC of Cefquinome in combination with BLI: >64 µg/mL
  MIC of Ceftazidime in combination with BLI: >64 µg/mL
  MIC of Ceftiofur in combination with BLI: >64 µg/mL
  MIC of Ceftobiprole in combination with BLI: >64 µg/mL
  MIC of Imipenem in combination with BLI: 4 to 8 µg/mL
  MIC of Meropenem in combination with BLI: 16 µg/mL
[2]; BLI at 4 μg/mL
  MIC of Aztreonam in combination with BLI: >64 µg/mL
  MIC of Cefadroxil in combination with BLI: >64 µg/mL
  MIC of Cefalonium in combination with BLI: >64 µg/mL
  MIC of Cefepime in combination with BLI: 32 µg/mL
  MIC of Cefotaxime in combination with BLI: 16 µg/mL
  MIC of Cefquinome in combination with BLI: 64 µg/mL
  MIC of Ceftazidime in combination with BLI: ≥64 µg/mL
  MIC of Ceftiofur in combination with BLI: >64 µg/mL
  MIC of Ceftobiprole in combination with BLI: >64 µg/mL
  MIC of Ertapenem in combination with BLI: 32 µg/mL
  MIC of Faropenem in combination with BLI: >64 µg/mL
  MIC of Imipenem in combination with BLI: 4 µg/mL
  MIC of Meropenem in combination with BLI: 4 to 8 µg/mL and 8 µg/mL
[2]; BLI at 8 μg/mL
  MIC of Cefepime in combination with BLI: 16 µg/mL
  MIC of Cefotaxime in combination with BLI: 16 µg/mL
  MIC of Cefquinome in combination with BLI: 64 µg/mL
  MIC of Ceftazidime in combination with BLI: 64 µg/mL
  MIC of Ceftiofur in combination with BLI: 64 µg/mL
  MIC of Ceftobiprole in combination with BLI: >64 µg/mL
  MIC of Ertapenem in combination with BLI: 16 µg/mL
  MIC of Faropenem in combination with BLI: >64 µg/mL
  MIC of Imipenem in combination with BLI: 2 µg/mL
  MIC of Meropenem in combination with BLI: 2 to 4 µg/mL
[2]; BLI at 16 μg/mL
  MIC of Aztreonam in combination with BLI: 64 µg/mL
  MIC of Cefadroxil in combination with BLI: >64 µg/mL
  MIC of Cefalonium in combination with BLI: 32 µg/mL
  MIC of Cefepime in combination with BLI: 4 µg/mL
  MIC of Cefotaxime in combination with BLI: 4 µg/mL
  MIC of Cefquinome in combination with BLI: 8 to 16 µg/mL
  MIC of Ceftazidime in combination with BLI: 4 µg/mL
  MIC of Ceftiofur in combination with BLI: 16 to 32 µg/mL
  MIC of Ceftobiprole in combination with BLI: 64 µg/mL
  MIC of Ertapenem in combination with BLI: 8 µg/mL
  MIC of Faropenem in combination with BLI: 64 µg/mL
  MIC of Imipenem in combination with BLI: <0.5 to 1 µg/mL and 1 µg/mL
  MIC of Meropenem in combination with BLI: 1 µg/mL
[2]; BLI at 32 μg/mL
  MIC of Cefquinome in combination with BLI: 2 to 4 µg/mL
  MIC of Ceftiofur in combination with BLI: 4 µg/mL
[2]; BLI at 64 μg/mL
  MIC of Aztreonam in combination with BLI: <0.5 µg/mL
  MIC of Cefadroxil in combination with BLI: 64 µg/mL
  MIC of Cefalonium in combination with BLI: 8 µg/mL
  MIC of Cefepime in combination with BLI: <0.5 µg/mL
  MIC of Cefotaxime in combination with BLI: ≤0.5 µg/mL
  MIC of Cefquinome in combination with BLI: 1 µg/mL
  MIC of Ceftazidime in combination with BLI: 1 µg/mL
  MIC of Ceftiofur in combination with BLI: 2 to 4 µg/mL
  MIC of Ceftobiprole in combination with BLI: ≤0.5 µg/mL
  MIC of Ertapenem in combination with BLI: <0.5 µg/mL
  MIC of Faropenem in combination with BLI: 4 µg/mL
  MIC of Imipenem in combination with BLI: <0.5 to 1 µg/mL
  MIC of Meropenem in combination with BLI: <0.5 µg/mL
[3]
  MIC of Imipenem in combination with BLI: 4 µg/mL
[4]; Ceftazidime 30 μg + Compound-1 60 μg on same disk
  ZOI of CAZ + Compound-1: 18.5 mm
[4]; Imipenem 10 μg + Compound-1 60 μg on same disk
  ZOI of IPM + Compound-1: 20 mm
[5]; BLI at 2 μg/mL
  MIC of Cefepime in combination with BLI: 1 µg/mL
  MIC of Cefotaxime in combination with BLI: 1 µg/mL
  MIC of Ceftazidime in combination with BLI: 2 µg/mL
  MIC of Ceftobiprole in combination with BLI: 2 µg/mL
  MIC of Imipenem in combination with BLI: 1 µg/mL
  MIC of Meropenem in combination with BLI: <0.06 µg/mL
[5]; BLI at 4 μg/mL
  MIC of Cefepime in combination with BLI: 0.25 µg/mL
  MIC of Cefotaxime in combination with BLI: <0.25 µg/mL
  MIC of Ceftazidime in combination with BLI: 1 µg/mL
  MIC of Ceftobiprole in combination with BLI: 0.5 µg/mL
  MIC of Imipenem in combination with BLI: 0.5 µg/mL
[5]; BLI at 8 μg/mL
  MIC of Cefepime in combination with BLI: <0.125 µg/mL
  MIC of Cefotaxime in combination with BLI: <0.25 µg/mL
  MIC of Ceftazidime in combination with BLI: 1 µg/mL
  MIC of Ceftobiprole in combination with BLI: <0.25 µg/mL
  MIC of Imipenem in combination with BLI: 0.5 µg/mL
  MIC of Meropenem in combination with BLI: <0.06 µg/mL
[5]; BLI at 16 μg/mL
  MIC of Imipenem in combination with BLI: 0.25 µg/mL
  MIC of Meropenem in combination with BLI: <0.125 µg/mL
[5]; Escherichia coli, read-out: MIC of BLI alone, BLI alone
  MIC: > 8 µg/mL
